Consider twelve compounds from ChEMBL document CHEMBL5465560, “Selectivity Literature for EUbOPEN Chemogenomic Library” (2024).

Assay [1] concerns the target Non-receptor tyrosine-protein kinase TYK2 (Homo sapiens, UniProt P29597). As to the kind of experiment: Selectivity interaction (Ambit KINOMEscan and KiNATiv profiling in Jurkat cells) EUB0000090b TYK2. The class given is cell-based. The conditions noted are these: at 1 µM.
Assay [2] addresses Platelet-derived growth factor receptor alpha (Homo sapiens, UniProt P16234). As to the kind of experiment: Selectivity interaction (KinomeScan (DiscoverX)) EUB0000607a PDGFRA. The settings on record: at 10 µM.
For assay [3], the target named is Ribosomal protein S6 kinase beta-1 (Homo sapiens, UniProt P23443). As to the kind of experiment: Selectivity interaction (KinomeScan (DiscoverX)) EUB0000607a RPS6KB1. The settings on record: at 10 µM.
Ribosomal protein S6 kinase beta-1, sequence (P23443 whole entry, looked up): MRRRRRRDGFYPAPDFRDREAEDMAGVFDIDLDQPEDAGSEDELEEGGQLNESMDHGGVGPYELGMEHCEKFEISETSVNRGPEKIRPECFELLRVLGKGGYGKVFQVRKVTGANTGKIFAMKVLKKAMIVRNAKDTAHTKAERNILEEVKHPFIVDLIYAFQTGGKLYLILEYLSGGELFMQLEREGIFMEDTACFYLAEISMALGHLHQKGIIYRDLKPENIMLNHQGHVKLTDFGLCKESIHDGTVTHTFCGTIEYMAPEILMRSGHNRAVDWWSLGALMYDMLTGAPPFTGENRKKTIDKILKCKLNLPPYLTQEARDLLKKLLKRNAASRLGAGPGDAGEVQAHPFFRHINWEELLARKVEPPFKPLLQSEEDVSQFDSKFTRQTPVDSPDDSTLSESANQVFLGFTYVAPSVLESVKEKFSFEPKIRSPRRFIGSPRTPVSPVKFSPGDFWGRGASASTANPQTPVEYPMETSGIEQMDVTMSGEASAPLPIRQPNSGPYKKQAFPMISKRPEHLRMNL
In assay [4] the target is T1, Serine/threonine-protein kinase Nek3 (Homo sapiens) (UniProt P51956).
T1 sequence (whole entry): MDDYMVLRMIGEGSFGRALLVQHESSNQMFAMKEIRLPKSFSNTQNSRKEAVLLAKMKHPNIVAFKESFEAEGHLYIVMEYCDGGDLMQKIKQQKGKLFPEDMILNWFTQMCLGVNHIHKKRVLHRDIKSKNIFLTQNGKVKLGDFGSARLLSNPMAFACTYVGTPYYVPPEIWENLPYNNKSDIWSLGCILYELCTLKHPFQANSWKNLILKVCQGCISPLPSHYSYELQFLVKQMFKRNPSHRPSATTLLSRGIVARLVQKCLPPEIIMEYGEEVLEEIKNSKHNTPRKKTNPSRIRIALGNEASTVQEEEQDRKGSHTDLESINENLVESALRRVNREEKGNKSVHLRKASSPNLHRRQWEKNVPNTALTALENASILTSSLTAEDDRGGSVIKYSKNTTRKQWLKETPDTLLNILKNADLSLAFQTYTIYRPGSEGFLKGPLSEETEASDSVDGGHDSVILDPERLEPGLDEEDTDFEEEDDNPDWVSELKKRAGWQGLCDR
As to the kind of experiment: Selectivity interaction (KinomeScan (DiscoverX)) EUB0000229b NEK3. The settings on record: at 10 µM.

Assay [5] has as its target T2, Homeodomain-interacting protein kinase 4 (Homo sapiens) (UniProt Q8NE63).
T2 sequence (whole entry): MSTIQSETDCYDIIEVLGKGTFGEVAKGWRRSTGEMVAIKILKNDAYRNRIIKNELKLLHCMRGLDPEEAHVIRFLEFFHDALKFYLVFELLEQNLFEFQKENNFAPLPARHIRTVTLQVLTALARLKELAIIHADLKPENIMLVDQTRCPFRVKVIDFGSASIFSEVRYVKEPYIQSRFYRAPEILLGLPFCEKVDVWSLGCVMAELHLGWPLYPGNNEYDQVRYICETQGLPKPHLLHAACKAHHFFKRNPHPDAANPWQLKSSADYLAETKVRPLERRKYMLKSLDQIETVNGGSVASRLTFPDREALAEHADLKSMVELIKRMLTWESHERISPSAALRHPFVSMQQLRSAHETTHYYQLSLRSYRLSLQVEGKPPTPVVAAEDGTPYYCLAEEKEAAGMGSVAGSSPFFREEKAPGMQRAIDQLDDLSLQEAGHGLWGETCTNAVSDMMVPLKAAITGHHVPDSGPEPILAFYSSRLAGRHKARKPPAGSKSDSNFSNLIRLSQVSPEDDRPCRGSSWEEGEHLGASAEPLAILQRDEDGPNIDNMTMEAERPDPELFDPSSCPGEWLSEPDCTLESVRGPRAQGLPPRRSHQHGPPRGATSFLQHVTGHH
As to the kind of experiment: Selectivity interaction (KinomeScan (DiscoverX)) EUB0000655a HIPK4. The settings on record: at 10 µM.

Assay [6] concerns the target Tyrosine-protein kinase Fer (Homo sapiens) (UniProt P16591). As to the kind of experiment: Selectivity interaction (KinomeScan (DiscoverX)) EUB0001079a FER. The settings on record: at 1 µM.
Assay [7] addresses T3, Interleukin-1 receptor-associated kinase 3 (Homo sapiens) (UniProt Q9Y616).
T3 sequence (whole entry): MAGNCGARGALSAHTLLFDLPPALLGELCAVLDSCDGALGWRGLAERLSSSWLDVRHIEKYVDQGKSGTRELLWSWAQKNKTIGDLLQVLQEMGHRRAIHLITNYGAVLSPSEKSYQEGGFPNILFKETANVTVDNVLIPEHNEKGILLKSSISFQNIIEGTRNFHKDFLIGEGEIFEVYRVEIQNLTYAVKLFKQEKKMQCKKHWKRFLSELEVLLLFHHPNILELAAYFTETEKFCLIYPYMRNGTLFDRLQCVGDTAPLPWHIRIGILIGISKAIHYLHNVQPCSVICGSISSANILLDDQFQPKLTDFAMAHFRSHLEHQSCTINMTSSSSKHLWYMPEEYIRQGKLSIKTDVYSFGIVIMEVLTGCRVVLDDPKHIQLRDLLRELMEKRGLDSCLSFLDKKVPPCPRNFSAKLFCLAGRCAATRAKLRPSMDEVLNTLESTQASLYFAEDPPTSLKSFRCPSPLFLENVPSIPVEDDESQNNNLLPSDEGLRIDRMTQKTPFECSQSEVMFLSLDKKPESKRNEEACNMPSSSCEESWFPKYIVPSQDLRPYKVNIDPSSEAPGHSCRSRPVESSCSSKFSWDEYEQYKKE
As to the kind of experiment: Selectivity interaction (KinomeScan (DiscoverX)) EUB0001079a IRAK3. The conditions noted are these: at 1 µM.

A further assay deals with Insulin receptor (Homo sapiens, UniProt P06213). The conditions noted are these: at 3 µM.
Assay [8] has as its target Mast/stem cell growth factor receptor Kit (Homo sapiens, UniProt P10721). As to the kind of experiment: Selectivity interaction (Kinase panel (Eurofins)) EUB0001564a KIT. The conditions noted are these: at 1 µM.
The target of assay [9] is Phosphatidylinositol 4-phosphate 3-kinase C2 domain-containing subunit beta (Homo sapiens) (UniProt O00750). As to the kind of experiment: Selectivity interaction (KinomeScan (DiscoverX)) EUB0000695a PIK3C2B. The conditions noted are these: at 100 nM.
Assay [10] addresses Protein kinase C beta type (Homo sapiens, UniProt P05771). As to the kind of experiment: Selectivity interaction (ProQinase) EUB0000171b PRKCB. The conditions noted are these: at 1 µM.
The target in assay [11] is Myosin-IIIa (Homo sapiens) (UniProt Q8NEV4). As to the kind of experiment: Selectivity interaction (KinomeScan (DiscoverX)) EUB0000092b MYO3A. The conditions noted are these: at 10 µM.
The test system of assay [12] is Phosphatidylinositol 4,5-bisphosphate 3-kinase catalytic subunit alpha isoform (Homo sapiens), P42336 [I800L]. The settings on record: at 10 µM.
In assay [13] the target is Protein kinase C theta type (Homo sapiens, UniProt Q04759). As to the kind of experiment: Selectivity interaction (KinomeScan (DiscoverX)) EUB0000618a PRKCQ. The settings on record: at 10 µM.
Protein kinase C theta type, sequence (Q04759 whole entry, looked up): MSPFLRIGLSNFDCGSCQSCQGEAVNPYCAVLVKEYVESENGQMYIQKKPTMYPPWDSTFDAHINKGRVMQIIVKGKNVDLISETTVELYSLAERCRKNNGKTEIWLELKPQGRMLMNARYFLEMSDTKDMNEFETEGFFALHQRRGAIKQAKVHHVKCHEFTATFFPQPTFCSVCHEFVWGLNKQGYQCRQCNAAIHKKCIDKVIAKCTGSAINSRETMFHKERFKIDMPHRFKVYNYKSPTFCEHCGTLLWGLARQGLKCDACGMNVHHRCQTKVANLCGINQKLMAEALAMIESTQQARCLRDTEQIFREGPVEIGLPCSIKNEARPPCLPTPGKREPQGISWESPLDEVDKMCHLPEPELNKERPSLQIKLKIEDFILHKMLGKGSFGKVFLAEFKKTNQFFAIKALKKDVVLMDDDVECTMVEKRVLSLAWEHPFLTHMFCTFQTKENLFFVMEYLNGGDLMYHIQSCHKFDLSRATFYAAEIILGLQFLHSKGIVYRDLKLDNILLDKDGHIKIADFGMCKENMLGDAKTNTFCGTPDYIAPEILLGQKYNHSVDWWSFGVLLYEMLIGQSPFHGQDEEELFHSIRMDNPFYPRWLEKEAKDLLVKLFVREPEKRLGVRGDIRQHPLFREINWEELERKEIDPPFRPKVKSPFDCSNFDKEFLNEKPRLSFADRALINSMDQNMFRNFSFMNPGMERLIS
The target of assay [14] is RAF proto-oncogene serine/threonine-protein kinase (Homo sapiens) (UniProt P04049). The conditions noted are these: at 10 µM.
RAF proto-oncogene serine/threonine-protein kinase (Homo sapiens), sequence (P04049 whole entry): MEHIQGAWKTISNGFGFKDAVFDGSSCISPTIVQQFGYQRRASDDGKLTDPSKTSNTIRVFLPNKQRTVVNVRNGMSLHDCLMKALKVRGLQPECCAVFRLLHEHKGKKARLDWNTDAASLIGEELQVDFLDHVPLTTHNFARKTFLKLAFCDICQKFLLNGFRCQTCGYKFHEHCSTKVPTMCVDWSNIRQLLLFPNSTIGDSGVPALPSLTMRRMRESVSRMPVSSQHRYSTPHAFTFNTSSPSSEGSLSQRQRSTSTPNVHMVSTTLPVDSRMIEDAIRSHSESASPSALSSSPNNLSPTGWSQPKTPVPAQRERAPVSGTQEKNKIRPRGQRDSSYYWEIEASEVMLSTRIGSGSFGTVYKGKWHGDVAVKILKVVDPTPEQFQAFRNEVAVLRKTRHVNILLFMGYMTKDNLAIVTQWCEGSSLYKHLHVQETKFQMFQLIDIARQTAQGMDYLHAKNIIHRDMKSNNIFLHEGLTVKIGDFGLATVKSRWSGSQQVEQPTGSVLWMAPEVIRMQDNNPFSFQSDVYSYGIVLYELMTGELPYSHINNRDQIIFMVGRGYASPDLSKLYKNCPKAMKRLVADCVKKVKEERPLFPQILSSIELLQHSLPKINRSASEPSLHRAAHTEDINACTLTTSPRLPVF

Protein kinase C beta type, sequence (P05771 2-671 limits assumed): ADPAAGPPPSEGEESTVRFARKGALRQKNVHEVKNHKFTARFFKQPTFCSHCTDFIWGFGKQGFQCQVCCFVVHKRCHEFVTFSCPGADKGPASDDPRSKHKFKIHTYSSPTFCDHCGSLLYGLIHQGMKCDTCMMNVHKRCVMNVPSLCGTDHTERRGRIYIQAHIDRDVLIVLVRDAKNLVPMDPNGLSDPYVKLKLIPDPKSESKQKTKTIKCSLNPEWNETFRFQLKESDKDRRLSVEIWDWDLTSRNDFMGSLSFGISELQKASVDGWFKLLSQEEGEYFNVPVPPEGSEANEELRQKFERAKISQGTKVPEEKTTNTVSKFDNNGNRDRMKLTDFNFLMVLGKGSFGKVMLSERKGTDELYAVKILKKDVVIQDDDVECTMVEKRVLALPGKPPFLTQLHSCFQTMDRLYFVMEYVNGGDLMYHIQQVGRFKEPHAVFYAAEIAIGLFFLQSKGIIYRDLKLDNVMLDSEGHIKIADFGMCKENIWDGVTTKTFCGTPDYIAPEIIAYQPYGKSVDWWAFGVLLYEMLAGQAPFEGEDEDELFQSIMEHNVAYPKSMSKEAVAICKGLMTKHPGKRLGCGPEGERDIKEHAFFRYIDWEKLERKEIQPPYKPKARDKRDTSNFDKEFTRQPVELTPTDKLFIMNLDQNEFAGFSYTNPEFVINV
Tyrosine-protein kinase Fer (Homo sapiens), sequence (P16591 whole entry, looked up): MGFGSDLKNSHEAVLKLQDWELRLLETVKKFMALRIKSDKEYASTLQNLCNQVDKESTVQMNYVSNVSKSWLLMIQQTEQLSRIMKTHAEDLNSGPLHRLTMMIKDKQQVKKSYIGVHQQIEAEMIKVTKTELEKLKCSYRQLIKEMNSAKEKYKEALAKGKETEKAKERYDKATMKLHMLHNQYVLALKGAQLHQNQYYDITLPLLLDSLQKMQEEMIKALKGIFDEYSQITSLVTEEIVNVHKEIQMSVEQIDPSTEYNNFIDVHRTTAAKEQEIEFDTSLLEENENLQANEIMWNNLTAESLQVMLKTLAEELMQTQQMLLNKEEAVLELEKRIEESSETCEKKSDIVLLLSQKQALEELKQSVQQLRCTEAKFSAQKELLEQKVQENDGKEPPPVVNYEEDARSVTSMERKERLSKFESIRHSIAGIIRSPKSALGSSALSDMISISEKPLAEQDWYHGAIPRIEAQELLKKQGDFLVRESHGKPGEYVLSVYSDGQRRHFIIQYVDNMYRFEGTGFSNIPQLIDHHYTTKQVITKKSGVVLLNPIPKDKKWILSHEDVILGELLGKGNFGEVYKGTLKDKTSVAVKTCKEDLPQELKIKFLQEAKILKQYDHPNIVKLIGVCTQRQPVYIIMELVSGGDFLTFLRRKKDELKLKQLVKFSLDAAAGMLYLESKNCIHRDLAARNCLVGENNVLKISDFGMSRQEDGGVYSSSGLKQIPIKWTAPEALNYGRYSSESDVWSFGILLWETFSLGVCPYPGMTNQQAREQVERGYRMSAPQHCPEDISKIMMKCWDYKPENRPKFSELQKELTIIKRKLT
Platelet-derived growth factor receptor alpha, sequence (P16234 whole entry): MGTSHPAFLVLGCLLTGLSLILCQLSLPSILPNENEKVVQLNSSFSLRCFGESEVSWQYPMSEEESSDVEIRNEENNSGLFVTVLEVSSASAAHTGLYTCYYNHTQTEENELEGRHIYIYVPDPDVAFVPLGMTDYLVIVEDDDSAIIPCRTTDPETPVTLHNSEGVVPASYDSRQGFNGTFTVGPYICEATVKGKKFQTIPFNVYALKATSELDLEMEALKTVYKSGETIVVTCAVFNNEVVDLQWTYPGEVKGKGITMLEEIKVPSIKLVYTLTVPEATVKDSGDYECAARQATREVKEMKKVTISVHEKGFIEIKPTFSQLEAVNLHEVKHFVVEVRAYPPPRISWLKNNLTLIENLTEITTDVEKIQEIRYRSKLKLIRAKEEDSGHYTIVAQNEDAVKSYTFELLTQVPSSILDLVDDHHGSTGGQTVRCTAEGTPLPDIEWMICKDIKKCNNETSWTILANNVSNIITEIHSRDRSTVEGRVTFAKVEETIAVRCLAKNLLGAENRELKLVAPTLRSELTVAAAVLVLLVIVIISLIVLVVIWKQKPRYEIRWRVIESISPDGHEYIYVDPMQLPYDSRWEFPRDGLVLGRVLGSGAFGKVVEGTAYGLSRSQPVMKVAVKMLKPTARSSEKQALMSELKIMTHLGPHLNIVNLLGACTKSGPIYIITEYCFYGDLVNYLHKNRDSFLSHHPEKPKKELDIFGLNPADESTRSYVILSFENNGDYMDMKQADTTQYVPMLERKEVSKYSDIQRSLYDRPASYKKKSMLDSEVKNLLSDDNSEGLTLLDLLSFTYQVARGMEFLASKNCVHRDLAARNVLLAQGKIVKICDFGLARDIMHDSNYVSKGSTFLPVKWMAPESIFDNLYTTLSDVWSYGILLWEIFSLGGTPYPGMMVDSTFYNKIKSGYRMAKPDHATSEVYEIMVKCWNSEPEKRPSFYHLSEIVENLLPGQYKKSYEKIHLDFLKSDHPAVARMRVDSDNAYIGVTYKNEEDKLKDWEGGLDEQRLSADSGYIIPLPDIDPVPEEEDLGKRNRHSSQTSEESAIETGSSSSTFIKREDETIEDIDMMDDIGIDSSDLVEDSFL

The compound `CN(C)C/C=C/C(=O)Nc1ccc(C(=O)N2CCCC(Nc3ncc(Cl)c(-c4c[nH]c5ccccc45)n3)C2)cc1` (stereo not given) came in with a % of control in [1] of 94%. With `CNC(=O)Nc1ccc(-c2nc(N3CC4CCC(C3)O4)c3cnn(C4CCC5(CC4)OCCO5)c3n2)cc1`, the % of control in [2] was 80%; in assay [3], 100%. `COc1cc(N(C)c2ccnc3ccc(C(F)(F)F)cc23)cc(OC)c1OC`: the % binding in assay [4] was determined as 80%.

For the compound `CN(C)CCOc1ccc(-c2nc(-c3ccncc3)c(-c3ccc4c(c3)CC/C4=N\O)[nH]2)cc1`, the % of control in [5] is 18%.

Take `Nc1cnc(N2CCc3cc(S(=O)(=O)Nc4c(F)cc(Cl)cc4F)cc(N4CCCC4=O)c32)nc1` [TP-020n]: the % of control came to 100% in [6] and 89% in [7]. `CCc1cc(Nc2nccc(-c3c(-c4ccc(OC)c(C(=O)Nc5c(F)cccc5F)c4)nc4ccccn34)n2)c(OC)cc1N1CCC(N2CCN(S(C)(=O)=O)CC2)CC1` came in with a % of inhibition at Insulin receptor of 69%. As to `CC[C@@H](Nc1c(C#N)c(-c2ccc(-c3cccc(C)c3F)cc2)nc2cnccc12)C(=O)O` [BAY-091], the % of inhibition in assay [8] was determined as 22.3%. As for `Cc1cc(F)c(C(=O)Nc2cccc(-c3nncn3C(C)C)n2)cc1-n1cnc(C2CC2)c1`, the % of control in [9] was determined as 100%. In turn, `C=CC(=O)Nc1cccc(C(=O)Nc2ccc(Nc3cc(-c4[nH]c(SC)nc4C)ccn3)cc2)c1` came in with a % of control in assay [10] of 103%. As for `CCC(=O)N1CCN(c2ccc(-n3c(=O)ccc4cnc5ccc(-c6cnc7ccccc7c6)cc5c43)cc2C(F)(F)F)CC1`, the % of control in [11] is 100%; in assay [12], 0%. The compound `O[C@H]1CC[C@H](Nc2ncc3nc(Nc4c(F)cc(F)cc4F)n([C@H]4CCOC4)c3n2)CC1` returned a % of control in assay [13] of 100%. As for `COCC(=O)NC/C=C/c1ccc2ncnc(Nc3ccc(Oc4ccc(C)nc4)c(C)c3)c2c1` [CP-724714], the % of control in [14] came out at 100%.
